{"source": "paper PMC4603705", "about": "“A bioinspired peptide scaffold with high antibiotic activity and low in vivo toxicity” (Scientific Reports, 2015)", "key": {"P. aeruginosa [1]": {"tested_on": "P. aeruginosa", "details": "P. aeruginosa 40b strain characterisation; cited from earlier work"}, "E. coli (ATCC 25922) [2]": {"tested_on": "E. coli (ATCC 25922)", "assay": "Transmission electron microscopy of treated E. coli", "type": "cell-based, Escherichia coli", "details": "120 min, 2 μg/mL (Figure 2 legend)", "description": "(§1) An overnight culture (12 to 16 h) of S. aureus (ATCC 29213) or E. coli (ATCC 25922) in Tryptic Soy Broth (TSB) was grown at 37 °C and 500 μL were added in 50 mL of tryptone water (∼10^8 bacteria/mL). […] Cells were collected by centrifugation (10000 rpm, 20 min).\n(§2) Samples were fixed with 2.5% glutaraldehyde in phosphate buffer for 2 h at 4 °C, then washed with the same buffer and post fixed with 1% osmium tetroxide in buffer containing 0.8% potassium ferricyanide at 4 °C. The samples were then dehydrated for 1 hour in acetone and infiltrated in a gradded series of Epon resin (Ted Pella Inc., USA) during 2 days, and finally embedded in fresh Epon resin and polymerised at 60 °C during 48 hours.\n(§3) Ultrathin sections were obtained using a Leica Ultracut UCT ultramicrotome (Leica, Vienna) and mounted on Formvar-coated copper grids. Sections were stained with 2% aqueous uranyl acetate and lead citrate and examined in a JEM-1010 electron microscope (Jeol, Japan)."}, "E. coli ATTC 8739": {"tested_on": "E. coli ATTC 8739", "type": "cell-based, Escherichia coli", "details": "ATTC 8739", "in_short": "(§4)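 MIC determined by broth microdilution in Mueller Hinton Broth, read after 18–20 h incubation. Part of the MIC testing was run in non-binding surface plates.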"}, "P. aeruginosa ATTC 9027": {"tested_on": "P. aeruginosa ATTC 9027", "type": "cell-based, Pseudomonas aeruginosa", "details": "ATTC 9027", "in_short": "as §4"}, "E. coli (ATCC 25922) [3]": {"tested_on": "E. coli (ATCC 25922)", "assay": "Flow cytometry (PI membrane permeability, BOX membrane potential), E. coli", "type": "cell-based, Escherichia coli", "details": "4 μg/mL", "description": "(§5) The mechanism of action at the membrane level of our best candidate was studied using flow cytometry. To assess membrane permeability, a propidium iodide (PI) probe was used[43][44]. The fluorescence conferred by this probe is generally associated with cells that have lost their membrane integrity. The effect on membrane potential was evaluated with bis-(1,3-dibutylbarbituric acid) trimethine oxonol (BOX). Membrane depolarization leads to the incorporation of this anionic dye into the cell where it binds to lipid-rich intracellular compounds, resulting in an increase in fluorescence.\n(§6) An overnight culture (12 to 16 h) of S. aureus (ATCC 29213) or E. coli (ATCC 25922) in Tryptic Soy Broth (TSB) was grown at 37 °C and 400 μL were added in 50 mL of tryptone water (∼10^7 bacteria/mL). The bacterial suspension was split into aliquots of 4-5 mL and treated with the peptides (at the MIC) for different incubation times at room temperature. Cells were collected by centrifugation (10000 rpm, 20 min) and resuspended in 1 mL of filtered Ringer’s solution.\n(§7) A stock solution of propidium iodide (PI, 1 mg/mL, Molecular Probes) and bis-(1,3-dibutylbarbituric acid) trimethine oxonol (BOX, 250 μM, Sigma Aldrich) was prepared in distilled water. Portions (10 μL and 2 μL, respectively) were added to aliquots of cells (100 μL of each sample in 1 mL of Ringer’s solution) to give a final concentration of 10 μg/mL of PI and 0.5 μM for BOX.\n(§8) Flow cytometric measurements were performed on a Gallios multi-colour flow cytometer instrument (Beckman Coulter, Inc, Fullerton, CA) set up with the 3-lasers 10 colors standard configuration. Excitation was done using a blue (488 nm) laser. Forward scatter (FS), side scatter (SS), green fluorescence (525/40 nm) from BOX and red fluorescence (620/30 nm) emitted by PI were collected using logarithmic scales. FS was used as the discriminating parameter. The single-cell bacterial population was selected on a forward-side scatter plot. Fluorescence was presented in a dot plot of BOX vs. PI. Three regions were defined on this graph according to the controls: depolarized, permeabilized and non-affected cells. Control cells (non-stained and single stained populations) were used to define these regions. 25,000 cells defined according to their scatter parameters were counted in each sample."}, "S. aureus (ATCC 29213) [4]": {"tested_on": "S. aureus (ATCC 29213)", "assay": "Flow cytometry (PI membrane permeability, BOX membrane potential), S. aureus", "type": "cell-based, Staphylococcus aureus", "details": "4 μg/mL", "description": "as §5, §6, §7, §8"}, "E. coli (ATCC 25922) [5]": {"tested_on": "E. coli (ATCC 25922)", "assay": "Reduction of viability by plate count, E. coli", "type": "cell-based, Escherichia coli", "details": "4 μg/mL", "description": "as §6"}, "S. aureus (ATCC 29213) [6]": {"tested_on": "S. aureus (ATCC 29213)", "assay": "Reduction of viability by plate count, S. aureus", "type": "cell-based, Staphylococcus aureus", "details": "4 μg/mL", "description": "as §6"}, "[7]": {"assay": "In vivo acute toxicity test (up-and-down procedure, OECD 425)", "design": "species or system mice", "details": "mouse, in vivo, sc; CD-1 mice, subcutaneous, up-and-down procedure, maximum likelihood method, 14 days", "description": "(§9) An in vivo acute toxicity test was performed on CD-1 mice. The lethal dose (LD50) was determined according to the up-and-down procedure. Compound 38 was administered subcutaneously at designated doses (100, 200 and 400 mg/kg).\n(§10) The evaluation of acute toxicity was conducted based on OECD 425 (Acute Oral Toxicity – Up-and-Down-Procedure (UDP) March 2006). The procedure was evaluated and accepted by the Ethical Committee of Experimental Animals of the University of Barcelona.\n(§11) The main test consists of a single ordered dose progression in which animals are dosed, one at a time, at a minimum of 24-hour intervals.\n(§12) Compound 38 was dissolved in PBS (pH 7.4), and administered subcutaneously to CD-1 mice at selected doses (100, 200 and 400 mg/kg). Since 5 reversals occurred in 6 consecutive animals tested between the 200 mg/Kg dose (the 3 animals, survived), and the 400 mg/Kg dose (the 3 animals died) the test was stopped.\n(§13) Mortality was monitored for 14 days post-treatment, and LD50 was determined using the maximum likelihood method."}, "CD-1 mice": {"tested_on": "CD-1 mice", "assay": "In vivo acute toxicity test (up-and-down procedure, OECD 425)", "details": "for Outcome of mice: CD-1 mice", "description": "as §9, §10, §11, §12, §13"}, "E. coli": {"tested_on": "E. coli", "description": "(§14) Strains of E. coli and P. aeruginosa with resistance to quinolones and carbapenems as well as multi-drug-resistant bacteria were tested.\n(§15) MICs were measured after 18–20 h of incubation in sterile 96-well plates (Corning Costar 3598 microtiter plates) in Mueller Hinton Broth (MHB) culture medium, (Difco, USA), according to well known in vitro protocols. Bacterial strains in Table 1 were: P. aeruginosa ATTC 9027, E. coli ATTC 8739, S. aureus ATTC 6538, and E. faecalis ATTC 29212. MICs shown in table 4 were performed by Mary Conrad at Cubist Pharmaceuticals (Lexington, MA) in non-binding surface plates."}, "P. aeruginosa [8]": {"tested_on": "P. aeruginosa", "description": "as §14, §15"}, "S. aureus (ATCC 29213) [9]": {"tested_on": "S. aureus (ATCC 29213)", "assay": "Transmission electron microscopy of treated S. aureus", "type": "cell-based, Staphylococcus aureus", "details": "4 μg/mL, 120 min", "description": "as §1, §2, §3"}, "[10]": {"details": "resistant to nalidixic acid, cotrimoxazole and ampicillin"}}, "note": "“Also recorded” adds a separate entry of the source. Bridge positions count the residues as written; N and C are the ends. Square brackets hold non-standard residues; d marks the D form. Peptide text beside a SMILES is read from it. * marks the point of attachment. Decanoyl = CCCCCCCCCC(=O)*; Nle = CCCC[C@H](N)C(=O)O; Dab = NCC[C@H](N)C(=O)O"}
{"smiles": "C[C@@H](O)[C@H]1C(=O)N2C(C(=O)O)=C(SCCN=CN)C[C@H]12", "note": "[Imipenem]", "values": [{"measurement": "MIC, resistance profile of P. aeruginosa 40b", "setting": "P. aeruginosa [1]", "result": "imipenem (MIC 32 mg/L)"}]}
{"smiles": "CCCCCCCCCC(=O)N[C@@H](CCN)C(=O)N[C@H](C(=O)N[C@@H](CCN)C(=O)N[C@H]1CSSC[C@H](C(N)=O)NC(=O)[C@H](CCN)NC(=O)[C@H](CCN)NC(=O)[C@H](CCCC)NC(=O)[C@@H](Cc2ccccc2)NC(=O)[C@H](CCN)NC1=O)[C@@H](C)O", "note": "[Analog 38, decanoyl -Dab-Thr-Dab-Cys-Dab-Phe-Nle-Dab-Dab-Cys] (Decanoyl-[Dab]T[Dab]C[Dab][dF][Nle][Dab][Dab][dC]-NH2; disulfide 4-10)", "values": [{"measurement": "Effect on cell morphology (TEM)", "setting": "E. coli (ATCC 25922) [2]", "result": "abnormal membrane septation and the formation of blebs on the bacterial surface"}, {"measurement": "MIC E. coli", "setting": "E. coli ATTC 8739", "result": 2, "unit": "µg/mL"}, {"measurement": "MIC P. aeruginosa", "setting": "P. aeruginosa ATTC 9027", "result": 1, "unit": "µg/mL"}, {"measurement": "% of stained cells PI", "setting": "E. coli (ATCC 25922) [3]; 30 min", "result": 7, "unit": "%"}, {"measurement": "% of stained cells BOX", "setting": "E. coli (ATCC 25922) [3]; 30 min, listed as 38", "result": "around 50%"}, {"measurement": "% of stained cells BOX", "setting": "E. coli (ATCC 25922) [3]; 30 min, listed as #38", "result": 47, "unit": "%"}, {"measurement": "% of stained cells BOX", "setting": "E. coli (ATCC 25922) [3]; 60 min", "result": 50, "unit": "%"}, {"measurement": "% of stained cells PI", "setting": "E. coli (ATCC 25922) [3]; 60 min", "result": 23, "unit": "%"}, {"measurement": "% of stained cells BOX", "setting": "E. coli (ATCC 25922) [3]; 120 min", "result": 47, "unit": "%"}, {"measurement": "% of stained cells PI", "setting": "E. coli (ATCC 25922) [3]; 120 min", "result": 43, "unit": "%"}, {"measurement": "% of stained cells BOX", "setting": "S. aureus (ATCC 29213) [4]; 30 min", "result": 1, "unit": "%"}, {"measurement": "% of stained cells PI", "setting": "S. aureus (ATCC 29213) [4]; 30 min", "result": 2, "unit": "%"}, {"measurement": "% of stained cells BOX", "setting": "S. aureus (ATCC 29213) [4]; 60 min", "result": 1, "unit": "%"}, {"measurement": "% of stained cells PI", "setting": "S. aureus (ATCC 29213) [4]; 60 min", "result": 3, "unit": "%"}, {"measurement": "% of stained cells BOX", "setting": "S. aureus (ATCC 29213) [4]; 120 min", "result": 4, "unit": "%"}, {"measurement": "% of stained cells PI", "setting": "S. aureus (ATCC 29213) [4]; 120 min", "result": 4, "unit": "%"}, {"measurement": "% viability reduction", "setting": "E. coli (ATCC 25922) [5]; 30 min", "result": 20, "unit": "%"}, {"measurement": "% viability reduction", "setting": "E. coli (ATCC 25922) [5]; 60 min", "result": 60, "unit": "%"}, {"measurement": "% viability reduction", "setting": "E. coli (ATCC 25922) [5]; 120 min", "result": 85, "unit": "%"}, {"measurement": "% viability reduction", "setting": "S. aureus (ATCC 29213) [6]; 30 min", "result": 15, "unit": "%"}, {"measurement": "% viability reduction", "setting": "S. aureus (ATCC 29213) [6]; 60 min", "result": 60, "unit": "%"}, {"measurement": "% viability reduction", "setting": "S. aureus (ATCC 29213) [6]; 120 min", "result": 85, "unit": "%"}, {"measurement": "LD50 at 14 days", "setting": "[7]", "result": 283, "unit": "mg/kg"}, {"measurement": "Outcome of mice", "setting": "CD-1 mice; 100 mg/kg subcutaneous", "result": "survived with no signs of toxicity"}, {"measurement": "Outcome of mice", "setting": "CD-1 mice; 200 mg/kg subcutaneous", "result": "survived with no signs of toxicity; also recorded: survived"}, {"measurement": "Necropsy of surviving mice", "setting": "CD-1 mice; 200 mg/kg subcutaneous, after 14 days", "result": "no signs of pathology in vital organs"}, {"measurement": "Outcome of mice", "setting": "CD-1 mice; 400 mg/kg subcutaneous", "result": "died"}, {"measurement": "LD50 relative to LD50 of PxB", "setting": "CD-1 mice; subcutaneous", "result": "~5", "unit": "times"}, {"measurement": "MIC E. coli NDM-1", "setting": "E. coli; highly-resistant, New Delhi metallo-beta-lactamase gene", "result": 0.5, "unit": "µg/mL"}, {"measurement": "MIC E. coli VAL 5", "setting": "E. coli; resistant to nalidixic acid", "result": 0.5, "unit": "µg/mL"}, {"measurement": "MIC E. coli MAC 21a", "setting": "E. coli; [10]", "result": 0.5, "unit": "µg/mL"}, {"measurement": "MIC E. coli VAL 10", "setting": "E. coli; [10]", "result": 0.5, "unit": "µg/mL"}, {"measurement": "MIC P. aeruginosa 38a", "setting": "P. aeruginosa [8]", "result": 0.5, "unit": "µg/mL"}, {"measurement": "MIC P. aeruginosa 40b", "setting": "P. aeruginosa [8]", "result": 4, "unit": "µg/mL"}, {"measurement": "Effect on cell morphology (TEM)", "setting": "S. aureus (ATCC 29213) [9]", "result": "numerous double-layered spherical mesosome-like structures"}]}
